What was measured:
hPPARβ chimeric receptor = molecular target: T1, hPPARβ chimeric receptor (Homo sapiens, UniProt Q03181); assay: Transient transfections assay using the HepG2 hepatoma cell line (Gal4-PPAR chimeric receptor, luciferase reporter), hPPARβ; format: cell-based; conditions: HepG2 cells transiently transfected, 24 hours incubation, read-out: Hep G2-hβ EC50
T1 construct: "expression plasmids encoding hPPARα, hPPARβ or mPPARγ chimeric receptors"
T1 sequence (Q03181 171-441 limits assumed): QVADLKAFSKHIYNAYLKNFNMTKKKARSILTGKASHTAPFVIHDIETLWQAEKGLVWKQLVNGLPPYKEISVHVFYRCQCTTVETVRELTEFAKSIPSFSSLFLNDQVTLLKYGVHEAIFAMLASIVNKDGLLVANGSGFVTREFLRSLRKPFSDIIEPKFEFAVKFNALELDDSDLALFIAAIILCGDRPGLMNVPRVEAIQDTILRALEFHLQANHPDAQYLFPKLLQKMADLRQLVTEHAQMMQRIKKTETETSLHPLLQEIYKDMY
Protocol: (§1) 1. Test A. Transient Transfections Assay using the HepG2 Hepatoma Cell Line.
(§2) HepG2 cells were transiently transfected with an expression plasmids encoding hPPARα, hPPARβ or mPPARγ chimeric receptors and a reporter containing the yeast upstream activating sequence (UAS) upstream of the viral E1B promoter controlling a luciferase reporter gene. In addition, the plasmid pRSVβ-gal was used to control for transfection efficiency. HepG2 cells were grown in DMEM supplemented with 10% FBS and […] non-essential amino acid. On the first day, cells were split into 100 mm dishes at 2.5×10^6/dish and incubated overnight at 37° C./5% CO2. On the second day the cells were transiently transfected with plasmid DNA encoding a chimeric receptor, the luciferase reporter gene; and β-gal. For each 100 mm dish, 15 μg of lucifease reporter (PG5E1b) DNA, 15 μg of Gal4-PPAR chimeric receptor DNA, and 1.5 μg of β-gal plasmid DNA were mixed with 1.4 ml of opti-MEM in the tube. 28 μl of LipoFectamine-2000 reagent was added to 1.4 ml of opti-MEM in the tube, and incubate for 5 min at RT. The diluted Lipofectamine-2000 reagent was combined with the DNA mixture, and incubate for 20 min at RT. After fresh medium was added to each 100 mm dish of cells, 2.8 ml of Lipofectamine2000-DNA mixture was added dropwise to the 100 mm dish containing 14 ml of medium, and incubate 37° C. overnight. On day three cells were trypsinized off the 100 mm dishes and re-plated on 96 well plates. Cells were plated at 2.5×10^4 cells per well in 150 μl of media and 50 μl of compound diluted by media was added. The test compound added were in the range from 50 μM to 50 pM. After addition of compounds, the plates were incubated at 37° C. for 24 hours. Subsequently cells were washed with once with 100 μl of PBS, lysed, and processed for measuring luciferase and β-gal activity using Dual-Light luciferase kit from Tropix®, according to the manufacturer's recommendations, on an EG&G Bethold MicroLumat LB96P luminometer. EC50 values were obtained using the GraphPad Prism™ program. […] Accordingly, the compounds of the present invention should find considerable therapeutic applications for hypercholesterolemia and hyperlipidemia.

hPPARα chimeric receptor = molecular target: T2, hPPARα chimeric receptor (Homo sapiens, UniProt Q07869); assay: Transient transfections assay using the HepG2 hepatoma cell line (Gal4-PPAR chimeric receptor, luciferase reporter), hPPARα; format: cell-based; conditions: HepG2 cells transiently transfected, 24 hours incubation, read-out: Hep G2-hα EC50
T2 construct: "expression plasmids encoding hPPARα, hPPARβ or mPPARγ chimeric receptors"
T2 sequence (Q07869 200-468 limits assumed): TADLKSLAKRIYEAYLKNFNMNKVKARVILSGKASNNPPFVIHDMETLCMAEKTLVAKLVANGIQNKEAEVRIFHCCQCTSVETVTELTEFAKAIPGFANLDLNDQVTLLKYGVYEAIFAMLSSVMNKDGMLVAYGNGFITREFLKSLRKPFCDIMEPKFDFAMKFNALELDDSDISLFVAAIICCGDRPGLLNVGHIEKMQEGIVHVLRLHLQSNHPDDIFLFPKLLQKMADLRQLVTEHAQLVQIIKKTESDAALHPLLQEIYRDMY
Protocol: as §1, §2

| EC50 (hPPARβ chimeric receptor) | melting point | EC50 (hPPARα chimeric receptor) | SMILES |
| --- | --- | --- | --- |
| 187 nM | – | – | Cc1nc(-c2ccc(C(F)(F)F)cc2)sc1CSc1ccc(OCC(=O)O)c2c1OCCC2 [Example 1, {8-[4-Methyl-2-(4-trifluoromethyl-phenyl)-thiazol-5-ylmethylsulfanyl]-chroman-5-yloxy}-acetic acid] |
| 52 nM | 166 to 167 °C | 2970 nM | Cc1nc(-c2ccc(C(F)(F)F)cc2)sc1CSc1ccc(OCC(=O)O)c2c1CCCC2 [Example 2, {4-[4-Methyl-2-(4-trifluoromethyl-phenyl)-thiazol-5-ylmethylsulfanyl]-5,6,7,8-tetrahydro-naphthalen-1-yloxy}-acetic acid] |
| 76 nM | 181 to 183 °C | 3580 nM | Cc1nc(-c2ccc(C(F)(F)F)cc2)sc1CSc1ccc(OCC(=O)O)c2ccccc12 [Example 3, {4-[4-Methyl-2-(4-trifluoromethyl-phenyl)-thiazol-5-ylmethylsulfanyl]-naphthalen-1-yloxy}-acetic acid] |
| 45 nM | 203.5 to 205.5 °C | 1760 nM | Cc1cc(SCc2sc(-c3ccc(C(F)(F)F)cc3)nc2C)c2c(c1OCC(=O)O)CCCO2 [Example 4, 2-[6-methyl-8-({4-methyl-2-[4-(trifluoromethyl)phenyl](1,3-thiazol-5-yl)}methylthio)chroman-5-yloxy]acetic acid] |
| 0.8 nM | 157 to 158 °C | 52 nM | Cc1cc(SCc2sc(-c3ccc(C(F)(F)F)cc3)nc2C)c2c(c1OCC(=O)O)CCO2 [Example 5, 2-[5-methyl-7-({4-methyl-2-[4-(trifluoromethyl)phenyl](1,3-thiazol-5-yl)}methylthio)-2,3-dihydrobenzo[b]furan-4-yloxy]acetic acid] |
| 133 nM | 184 °C | 191 nM | Cc1cc(SCc2sc(-c3ccc(C(F)(F)F)cc3)nc2C)c2c(c1OCC(=O)O)CCC2 [Example 6, {5-Methyl-7-[4-methyl-2-(4-trifluoromethyl-phenyl)-thiazol-5-ylmethylsulfanyl]-indan-4-yloxy}-acetic acid] |

Source: patent US6833380B2, “Compounds that modulate PPAR activity and methods of preparation” (Warner-Lambert Company, LLC, priority 2002, dated 2004)
